Measured values reported in paper PMC4264199, “Peptide Array on Cellulose Support—A Screening Tool to Identify Peptides with Dipeptidyl-Peptidase IV Inhibitory Activity within the Sequence of α-Lactalbumin” (International Journal of Molecular Sciences, 2014).
Ends that are not written are not given here.

Experiments:
[1] = molecular target: T1, dipeptidyl-peptidase IV (DPP-IV) (Homo sapiens, UniProt P27487); assay: DPP-IV inhibition assay on traditionally-synthesized peptides; type: biochemical; details: 250 µM of peptides (final assay concentration); averages of three determinations
T1 construct: purchased Creative BioMart (Shirley, NY, USA); host or cells: HEK293 human cells
T1 sequence (P27487 whole entry): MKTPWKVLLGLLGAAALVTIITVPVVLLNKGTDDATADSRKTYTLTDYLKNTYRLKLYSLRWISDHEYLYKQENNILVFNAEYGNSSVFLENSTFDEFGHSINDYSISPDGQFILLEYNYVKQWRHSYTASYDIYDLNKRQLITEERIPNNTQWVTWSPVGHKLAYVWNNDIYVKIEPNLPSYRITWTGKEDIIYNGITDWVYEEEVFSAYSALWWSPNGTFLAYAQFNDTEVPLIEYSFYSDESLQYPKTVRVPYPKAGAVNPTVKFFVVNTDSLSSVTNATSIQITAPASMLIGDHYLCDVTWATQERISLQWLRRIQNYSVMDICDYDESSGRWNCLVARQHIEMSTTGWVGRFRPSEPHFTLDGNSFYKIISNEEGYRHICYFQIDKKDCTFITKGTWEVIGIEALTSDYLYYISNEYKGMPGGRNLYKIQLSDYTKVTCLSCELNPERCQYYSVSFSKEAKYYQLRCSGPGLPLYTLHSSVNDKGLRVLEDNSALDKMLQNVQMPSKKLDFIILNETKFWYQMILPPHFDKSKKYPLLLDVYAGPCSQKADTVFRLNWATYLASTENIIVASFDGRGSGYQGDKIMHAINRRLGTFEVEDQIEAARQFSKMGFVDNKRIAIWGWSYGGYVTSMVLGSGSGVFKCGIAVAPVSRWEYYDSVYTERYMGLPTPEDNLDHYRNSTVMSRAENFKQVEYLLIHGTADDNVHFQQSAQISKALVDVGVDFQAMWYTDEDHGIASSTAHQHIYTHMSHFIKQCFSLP
Source text: (§1) Recombinant human dipeptidyl-peptidase IV (DPP-IV, EC 3.4.14.5, expressed in HEK293 human cells, >95% purity, activity >5500 pmoles Gly–Pro–7-amido-4-methylcoumarin/min/µg) was purchased from Creative BioMart (Shirley, NY, USA) while polyclonal goat DPP-IV antibody and polyclonal donkey anti-goat secondary antibody conjugated to horseradish peroxidase were obtained from R&D Systems (Minneapolis, MN, USA). Pierce™ ECL western blotting substrate and protein-free (TBS) blocking buffer were from Thermo Scientific (Rockford, IL, USA). Gly–Pro–p-nitroanilide (H-Gly–Pro–p-NA∙HCl) was purchased from Bachem Americas (Torrance, CA, USA). Synthesized peptides (≥95% purity) were prepared and purified by GL Biochem (Shanghai) Ltd. (Shanghai, China).
The peptides were dissolved in a mixture of acetonitrile and H2O and further diluted in 100 mM Tris-HCl pH 8.0 buffer to the desired concentrations. In a 96-well microplate, 25 µL of sample were pre-incubated with 25 µL of 100 mM Tris-HCl pH 8.0 buffer and 35 µL of Gly–Pro–p-NA (0.29 mM in 100 mM Tris-HCl buffer pH 8.0) at 37 °C for 10 min. The enzymatic reaction was started by addition of 15 µL of DPP-IV solution (25 mU/mL) and carried out at 37 °C for 30 min. Sodium acetate buffer (1 M, pH 4.0, 100 µL) was added to stop the reaction and the absorbance of the released p-nitroaniline was measure at 405 nm using a Tecan Infinite® 200 Pro microplate reader. The positive and negative controls were prepared by using Tris-HCl buffer (100 mM, pH 8.0) in place of the sample and in place of the sample and enzyme solution, respectively.

[2] = molecular target: T1, dipeptidyl-peptidase IV (DPP-IV); assay: DPP-IV inhibition assay on SPOT-synthesized peptides (cleaved from cellulose membrane); type: biochemical; details: peptides cleaved from cellulose membrane, concentration not known (semi-quantitative), averages of four determinations from two experiments
Source text: as §1
Peptide arrays of deca-peptides spanning the entire α-lactalbumin sequence with a frame shift of one amino acid between successive sequences were prepared by Kinexus Bioinformatics Corporation (Vancouver, BC, Canada). The peptides were synthesized from the C-terminal amino acid using the SPOT technology consisting of the stepwise coupling of the Fmoc-protected amino acids and cleavage of the side chain protection groups. The α-lactalbumin-derived peptides were synthesized on trioxatridecanediamine (TOTD) and β-alanine-modified Whatman 540 cellulose membranes for the binding and inhibition assays, respectively. For the inhibition assay, the peptides were synthesized in large dots (5–7 mm in diameter) and the quality of the synthesis was verified by HPLC analysis of quality controls spots included on the membranes.
In order to determine the effect of the SPOT-synthesized peptides on the activity of the DPP-IV enzyme, the peptides were first cleaved from the cellulose support by incubating the membranes with gaseous ammonia overnight. Peptide spots (5 mm in diameter) were then punched out using a single-hole punch and transferred into microcentrifuge tubes containing 150 µL of acetonitrile (50% in 100 mM Tris–HCl buffer pH 8.0). The peptide solution (50 µL) was pipetted into a 96-well microplate with 35 µL of the chromogenic substrate Gly–Pro–p-NA (0.29 mM in 100 mM Tris–HCl buffer pH 8.0). The mixture was pre-incubated for 10 min at 37 °C, whereupon 15 µL of DPP-IV (25 mU/mL) was added and the enzymatic reaction was carried out for 30 min at 37 °C. The reaction was then terminated by addition of 100 µL of 1 M sodium acetate buffer pH 4.0 and the absorbance of the released p-nitroaniline was measured at 405 nm using a Tecan Infinite® 200 Pro microplate reader (ESBE Scientific, Markham, ON, Canada). Positive and negative controls (DPP-IV activity with no inhibitor and no DPP-IV activity, respectively) were prepared using punched peptide-free cellulose spots from the same membrane used for peptide synthesis, and adding Tris-HCl buffer in place of the sample and in place of the sample and enzyme solution, respectively.
One unit of DPP-IV was defined as the concentration of enzyme that releases 1 µmol per min of p-nitroaniline from Gly–Pro–p-NA (100 µM) at 37 °C and pH 8.0.

[3] = molecular target: T1, dipeptidyl-peptidase IV (DPP-IV); assay: Determination of the mode of inhibition and the inhibition constant (Ki); type: biochemical
Experimental: The traditionally-synthesized peptides showing the highest inhibitory activity against DPP-IV were further studied for their mode of action on the enzyme as previously described with the following modifications: the substrate (25 µL) was combined with 100 mM Tris-HCl buffer pH 8.0 (35 µL) and the sample (25 µL) and pre-incubated for 10 min at 37 °C, after which the enzymatic reaction was started by addition of the DPP-IV enzyme (15 µL of a 25 mU/mL solution).
The mode of inhibition and Ki values of the inhibitory peptides were determined by fitting the initial velocity versus substrate concentration data to nonlinear regression models using the GraphPad Prism software (version 6, GraphPad Software, San Diego, CA, USA). The Ki values are expressed as final assay concentrations.

[4] = molecular target: T1, dipeptidyl-peptidase IV (DPP-IV); assay: Probing of membrane-bound peptide arrays: binding of DPP-IV to deca-peptides (immunoassay, chemiluminescence); details: peptide array on cellulose membrane, DPP-IV 10 μg/mL
Experimental: The interaction between the DPP-IV enzyme and deca-peptides spanning the entire α-lactalbumin sequence (Table S1) was first determined by immunoassay and visualized using an enhanced chemiluminescence substrate (Figure 1).
The membranes were first blocked with protein-free (Tris-buffered saline (TBS)) blocking buffer containing 0.05% Tween-20 for 4 h at room temperature and then incubated with DPP-IV (10 μg/mL in blocking buffer) overnight at 4 °C. The membranes were washed with TBS (50 mM Tris, 136 mM NaCl, 0.05% Tween-20, pH 8.0) four times for 15 min each, after which they were incubated with the polyclonal goat DPP-IV antibody (0.2 µg/mL) for 8 h at 4 °C. The membranes were once again washed with TBS four times for 15 min each prior to being incubated with anti-goat secondary antibody conjugated to horseradish peroxidase (0.1 µg/mL) overnight at 4 °C. Finally, the membranes were washed four more times for 15 min each; then a thin layer of chemiluminescence detection mixture, prepared according to the manufacturer’s instructions, was applied for 1 min and the luminescence generated from the spots on the membranes with bound DPP-IV was measured using a ChemiDoc™ MP system (Bio-Rad Laboratories (Canada) Ltd., Mississauga, ON, Canada).

Row | Substance | inhibition at 250 µM [1] [%] | Percent inhibition of DPP-IV activity, SPOT-synthesized deca-peptides [2] [%] | also measured
1 | FHTSGYDTQA [C9, FHTSGYDTQA] | 2 | 12 | –
2 | LCSEKLDQWL [J11, LCSEKLDQWL] | 25 | 25 | Ki [3]: 217 ± 15 µM
3 | TSGYDTQAIV [C11, TSGYDTQAIV] | -1 | 14 | –
4 | LKPTPEGDLE [K6, LKPTPEGDLE] | 24 | 23 | Ki [3]: 729 ± 128 µM
5 | VFRELKDLKG [A8, VFRELKDLKG] | 3 | 14 | –
6 | GYGGVSLPEW [B6, GYGGVSLPEW] | 8 | 17 | –
7 | QNPHSSNICN [F10, QNPHSSNICN] | 2 | 8 | –
8 | DTQAIVQNND [D4, DTQAIVQNND] | 2 | 14 | –
9 | LAHKALCSEK [J6, LAHKALCSEK] | 31 | 27 | Ki [3]: 217 ± 9 µM
10 | EQLTKCEVFR [A1, EQLTKCEVFR] | 10 | 11 | –
11 | KKILDKVGIN [I5] | – | 17 | Binding of DPP-IV to cellulose-bound deca-peptide (in words) [4]: strongest binding to DPP-IV; Percent inhibition of DPP-IV activity, SPOT-synthesized deca-peptides ([2]; listed as KKILDKVGIN): less than 20%
12 | IPAVFKIDAL [K7, IPAVFKIDAL] | 48 | 25 | Ki [3]: 156 ± 11 µM
13 | YAEGTFISDY [K9, reference compound] | – | 24 | Binding of DPP-IV to cellulose-bound deca-peptide (in words) [4]: found to bind to DPP-IV
14 | ICNISCDKFL [G6] | – | 31 | Binding of DPP-IV to cellulose-bound deca-peptide (in words) [4]: moderate or no binding
15 | VKKILDKVGI [I4] | – | 18 | Binding of DPP-IV to cellulose-bound deca-peptide (in words) [4]: strongest binding to DPP-IV; Percent inhibition of DPP-IV activity, SPOT-synthesized deca-peptides ([2]; listed as VKKILDKVGI): less than 20%
16 | YPSKPDNPGE [K11, YPSKPDNPGE, reference compound] | 25 | 31 | Ki [3]: 262 ± 17 µM
17 | J2: α-lactalbumin-derived deca-peptide, residues 101–110 (Table S1) (IDYWLAHKAL; UniProt P00709 120-129, looked up, fragment) | – | 18 | –
18 | DQNPHSSNIC [F9] | – | 15 | –
19 | D3: α-lactalbumin-derived deca-peptide, residues 36–45 (Table S1) (YDTQAIVENN; UniProt P00709 55-64, looked up, fragment) | – | 11 | –
20 | VQNNDSTEYG [D9] | – | 13 | –
21 | GLFQINNKIW [E7] | – | 9 | –
22 | CDKFLDDDLT [G11] | – | 22 | –
23 | CKDDQNPHSS [F6, CKDDQNPHSS] | -3 | 15 | –
24 | A5: α-lactalbumin-derived deca-peptide, residues 5–14 (Table S1) (KCEVFRELKD; UniProt P00711 24-33, looked up, fragment) | – | 17 | –
25 | B2: α-lactalbumin-derived deca-peptide, residues 13–22 (Table S1) (KDLKGYGGVS; UniProt P00711 32-41, looked up, fragment) | – | 11 | –
26 | B8: α-lactalbumin-derived deca-peptide, residues 19–28 (Table S1) (GGVSLPEWVC; UniProt P00711 38-47, looked up, fragment) | – | 15 | –
27 | C8: α-lactalbumin-derived deca-peptide, residues 30–39 (Table S1) (TFHTSGYDTQ; UniProt P00711 49-58, looked up, fragment) | – | 13 | –
28 | G4: α-lactalbumin-derived deca-peptide, residues 70–79 (Table S1) (SNICNISCDK; UniProt P00711 89-98, looked up, fragment) | – | 19 | –
29 | I11: α-lactalbumin-derived deca-peptide, residues 99–108 (Table S1) (VGINYWLAHK; UniProt P00711 118-127, looked up, fragment) | – | 20 | –
30 | I8: α-lactalbumin-derived deca-peptide, residues 96–105 (Table S1) (LDKVGINYWL; UniProt P00711 115-124, looked up, fragment) | – | 16 | –
